The text below walks through data of PMC12439166, “Dietary flavonoids form supramolecular assemblies, alter biochemistry, and enhance cell resilience” (Frontiers in Nutrition, 2025).

SMILES strings stand for the structures.

The target in one assay is T1, Sirtuin-3 (SIRT3) (Homo sapiens, UniProt Q9NTG7).
T1 sequence (Q9NTG7 1-399): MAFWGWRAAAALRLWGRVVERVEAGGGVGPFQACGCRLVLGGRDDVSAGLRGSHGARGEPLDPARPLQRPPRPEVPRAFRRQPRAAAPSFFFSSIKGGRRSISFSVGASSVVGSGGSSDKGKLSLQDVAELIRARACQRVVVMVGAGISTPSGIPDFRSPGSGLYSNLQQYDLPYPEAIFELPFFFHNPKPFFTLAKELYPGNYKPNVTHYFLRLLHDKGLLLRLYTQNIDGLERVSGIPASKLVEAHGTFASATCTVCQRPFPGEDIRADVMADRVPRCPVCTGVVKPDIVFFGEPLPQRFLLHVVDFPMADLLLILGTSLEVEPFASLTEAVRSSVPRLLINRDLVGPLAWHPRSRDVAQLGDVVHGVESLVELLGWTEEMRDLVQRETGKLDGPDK
Nature of the assay: Enzyme activity assay (SAMDI-MS), SIRT3. The format is biochemical. The settings on record: 10 concentrations, 5 nM to 100 μM, compounds incubated with enzyme 30 min, result in words. On the procedure: (§1) Enzyme screens were performed by SAMDI Tech (contract research organization); enzyme assays were performed in a 20 μL volume in 384-well low-volume polypropylene microtiter plates (Greiner Bio-One) at room temperature. The enzymes [Arginase 1 (ARG1), Lysine demethylase 4C (KDM4C), MAP/microtubule affinity-regulating kinase 4 (MARK4), Histone-Lysine N-methyltransferase (NSD2), Tyrosine-protein phosphatase non-receptor type 1 (PTP1B), and Sirtuin-3 (SIRT3)] were incubated with compounds for 30 min prior to initiation of the reaction by the addition of substrate and cofactors (if required). […] SAMDI MS was performed using reflector positive mode on an AB Sciex TOF-TOF 5800 System (AB Sciex, Framingham, MA) with 400 shots/spot analyzed in a random raster sampling. For data analysis, the area under the curves (AUCs) for the product peak and substrate peak were calculated using the TOF/TOF Series Explorer (AB Sciex), and the amount of product formed was calculated using the equation AUC product / (AUC product + AUC Substrate). […]
(§2) IC50 values of enzyme inhibition. Inhibition of the enzymes was measured at 10 concentration values in the range of 5 nM to 100 μM for each compound and enzyme, with two technical replicates; the percent inhibition values were determined by SAMDI software. […]

The next assay deals with T2, Arginase 1 (ARG1) (Homo sapiens, UniProt P05089).
T2 sequence (P05089 1-322): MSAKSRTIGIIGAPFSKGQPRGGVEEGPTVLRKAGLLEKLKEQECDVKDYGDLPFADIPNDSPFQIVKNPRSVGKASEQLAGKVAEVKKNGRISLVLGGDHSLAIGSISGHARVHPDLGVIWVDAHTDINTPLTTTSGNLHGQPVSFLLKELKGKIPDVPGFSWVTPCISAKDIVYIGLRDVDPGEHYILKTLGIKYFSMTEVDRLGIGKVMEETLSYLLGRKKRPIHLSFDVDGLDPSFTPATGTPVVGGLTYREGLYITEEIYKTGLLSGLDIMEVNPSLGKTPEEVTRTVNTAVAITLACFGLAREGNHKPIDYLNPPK
The assay is described as follows: Enzyme activity assay (SAMDI-MS), Arginase 1. Format: biochemical. The conditions noted are these: 10 concentrations, 5 nM to 100 μM, compounds incubated with enzyme 30 min, result in words. The procedure:
as §1, §2

On to `O=c1c(O)c(-c2ccc(O)c(O)c2)oc2cc(O)cc(O)c12` [quercetin], for which the results for the “inhibition of enzyme activity, SIRT3” value at Sirtuin-3 (SIRT3) (listed as Quercetin) and on Sirtuin-3 (SIRT3) (listed as Quercitin) were “inhibited” and “concentration-dependent inhibition”, respectively. Further, the “inhibition of enzyme activity, ARG1” value against Arginase 1 (ARG1) (listed as Quercetin) is “inhibited”; against Arginase 1 (ARG1) (listed as Quercitin), “concentration-dependent inhibition”.
